Data taken from patent US20100168133A1, “USE OF SUBSTITUTED QUINOLINE DERIVATIVES FOR THE TREATMENT OF DRUG RESISTANT MYCOBACTERIAL DISEASES” (priority 2004, published 2010).
In brackets after ≈: the same amount, converted by molar mass. Read-outs that look alike come from different tables or passages of the source.

Key:
M. avium = format: cell-based; details: M. avium resistant to fluoroquinolones, mutation Ala83Val (Table 9)
M. fortuitum = assay: In-vitro MIC in solid medium against fluoroquinolone-resistant clinical isolates; format: cell-based; details: Mycolicibacterium fortuitum, no mutation indicated, Table 10 1st strain
[1] = test system: M. tuberculosis H37Rv strain; format: in vivo, Swiss female mice
[2] = test system: M. tuberculosis strain H37Rv; assay: In vivo susceptibility of M. tuberculosis to compound 12 in combination with other antimycobacterial agents, lung CFU (Tables 13, 14); parameters: species or system Swiss mice; details: for CFU 1 month (lung) / CFU 2 months (lung): once-a-day group (gavage 5 days/week from day 14), D0 = 7.23; for CFU 1 month (lung): lung CFU after 1 month of treatment; for CFU 2 months (lung): lung CFU after 2 months of treatment; for Decrease 1 mo vs D0 (lung CFU) / Decrease 2 mo vs D0 (lung CFU) / % positive mice 2nd month: once-a-day group; for Decrease 1 mo vs D0 (lung CFU): 1 month of treatment versus D0 (7.23); for Decrease 2 mo vs D0 (lung CFU): 2 months of treatment versus D0 (7.23); for % positive mice 2nd month: culture-positive mice / mice examined after 2 months; for % positive mice / lung CFU*: once-a-week group, after 2 months of treatment; for lung CFU*: by gavage, D0 value 7.23
[3] = […], treatment from day 14, five times weekly, title: 2 months (footnote: four weeks, sacrifice day 42)

SMILES: CO[C@H]1/C=C/O[C@@]2(C)Oc3c(C)c(O)c4c(O)c(c(/C=N/N5CCN(C)CC5)c(O)c4c3C2=O)NC(=O)/C(C)=C\C=C\[C@H](C)[C@H](O)[C@@H](C)[C@@H](O)[C@@H](C)[C@H](OC(C)=O)[C@@H]1C [Rifampin, rifampin]
- MIC (M. avium): 16 µg/mL (≈ 19.4 µM)
- MIC (M. fortuitum): 128 µg/mL (≈ 156 µM)
- Mean CFU (log10) per Lung ([1]; mouse, in vivo): 1.89 ± 0.50 log10
- Mean CFU (log10) per Spleen ([1]; mouse, in vivo): 2.75 ± 0.34 log10
- Spleen weight (mean) ([1]; mouse, in vivo): 391 ± 70 mg
- CFU 1 month (lung) [2]: 6.01
- CFU 2 months (lung) [2]: 4.07
- Decrease 1 mo vs D0 (lung CFU) [2]: −1.22
- Decrease 2 mo vs D0 (lung CFU) [2]: −3.16
- % positive mice 2nd month [2]: 10/10

SMILES: COc1c(N2C[C@@H]3CCCN[C@@H]3C2)c(F)cc2c(=O)c(C(=O)O)cn(C3CC3)c12 [M, moxifloxacin]
- Mean CFU (log10) per Lung [1, 3]: 2.89 ± 0.57 log10
- Mean CFU (log10) per Spleen [1, 3]: 3.53 ± 0.34 log10
- Spleen weight (mean) [1, 3]: 400 ± 99 mg
- CFU 1 month (lung) [2]: 5.51
- CFU 2 months (lung) [2]: 4.3
- Decrease 1 mo vs D0 (lung CFU) [2]: −1.72
- Decrease 2 mo vs D0 (lung CFU) [2]: −2.93
- % positive mice 2nd month [2]: 10/10
- % positive mice [2]: 7/7
- lung CFU* [2]: 6.44 +/− 0.5

SMILES: COc1nc2ccc(Br)cc2cc1[C@@H](c1ccccc1)[C@@](O)(CCN(C)C)c1cccc2ccccc12 [Compound 12, (αS,βR)-6-bromo-α-[2-(dimethylamino)ethyl]-2-methoxy-α-1-naphthalenyl-β-phenyl-3-quinolineethanol]
- MIC (M. avium): 0.007 µg/mL (≈ 0.0126 µM)
- MIC (M. fortuitum): 0.01 µg/mL (≈ 0.018 µM)
- Mean CFU (log10) per Lung [1, 3]: 0.22 ± 0.32 log10
- Mean CFU (log10) per Spleen [1, 3]: 1.24 ± 0.50 log10
- Spleen weight (mean) [1, 3]: 248 ± 47 mg
- CFU 1 month (lung) [2]: 4.14
- CFU 2 months (lung) [2]: 2.28
- Decrease 1 mo vs D0 (lung CFU) [2]: −3.09
- Decrease 2 mo vs D0 (lung CFU) [2]: −4.95
- % positive mice 2nd month [2]: 8/10
- % positive mice [2]: 9/9
- lung CFU* [2]: 1.99 +/− 0.75

SMILES: CC1COc2c(N3CCN(C)CC3)c(F)cc3c(=O)c(C(=O)O)cn1c23 (stereo not drawn) [Ofloxacin, ofloxacin]
- MIC (M. fortuitum): 1 µg/mL (≈ 2.77 µM)
